Data as given in the NIST ThermoML archive (doi:10.1016/j.jct.2010.06.008).

Experiment: xn = mol fraction of the nth substance listed
Settings: 101 kPa, Liquid; for speed of sound: Sing-around technique in a fixed-path interferometer; for mass density: Vibrating tube method

CCC(C)Cl (stereo unspecified) [2-chlorobutane] + CCCCCC
Settings | mass density, 283.15 K [kg/m3] | mass density, 298.15 K [kg/m3] | mass density, 313.15 K [kg/m3] | speed of sound, 283.15 K [m/s] | speed of sound, 298.15 K [m/s] | speed of sound, 313.15 K [m/s]
x2 = 0 | 884.34 | 867.474 | 850.266 | 1127.7 | 1066.2 | 1005.3
x2 = 0.0509 | 870.642 | 853.976 | 836.967 | 1126.4 | 1064.5 | 1003.3
x2 = 0.1002 | 857.772 | 841.229 | 824.438 | 1125.2 | 1063.1 | 1001.6
x2 = 0.1802 | 837.449 | 821.198 | 804.693 | 1124 | 1061.4 | 999.26
x2 = 0.3029 | 807.817 | 791.981 | 775.929 | 1123.1 | 1059.7 | 996.75
x2 = 0.4045 | 784.524 | 769.021 | 753.339 | 1123.4 | 1059.3 | 995.71
x2 = 0.4991 | 763.875 | 748.682 | 733.339 | 1124.5 | 1059.8 | 995.56
x2 = 0.5974 | 743.353 | 728.495 | 713.496 | 1126.5 | 1061.1 | 996.3
x2 = 0.6992 | 723.059 | 708.519 | 693.898 | 1129.5 | 1063.4 | 998
x2 = 0.7996 | 704.031 | 689.807 | 675.523 | 1133.3 | 1066.8 | 1000.8
x2 = 0.8981 | 686.218 | 672.305 | 658.349 | 1138.3 | 1071.1 | 1004.5
x2 = 0.9477 | 677.555 | 663.793 | 650.005 | 1141.4 | 1073.7 | 1006.9

CCC(C)Cl (stereo unspecified) [2-chlorobutane] + CCCCCCC
mass density [kg/m3]
Settings | 283.15 K | 298.15 K | 313.15 K
x2 = 0 | 884.34 | 867.474 | 850.266
x2 = 0.0506 | 870.755 | 854.132 | 837.236
x2 = 0.0989 | 858.319 | 841.994 | 825.335
x2 = 0.2012 | 833.412 | 817.61 | 801.474
x2 = 0.3016 | 810.786 | 795.463 | 779.843
x2 = 0.3997 | 790.254 | 775.401 | 760.214
x2 = 0.4984 | 771.15 | 756.698 | 741.962
x2 = 0.5994 | 752.976 | 738.95 | 724.63
x2 = 0.6994 | 736.272 | 722.581 | 708.679
x2 = 0.7996 | 720.631 | 707.328 | 693.773
x2 = 0.9006 | 705.927 | 692.97 | 679.768
x2 = 0.9503 | 699.08 | 686.282 | 673.245

CCCCCCC [heptane] + CC(C)(C)Cl
x1 = 1
Settings | mass density [kg/m3] | speed of sound [m/s]
283.15 K | 692.422 | 1195.7
298.15 K | 679.783 | 1131
313.15 K | 666.908 | 1067.2

CCCCCCC [heptane] + CC(C)CCl
x1 = 1
Settings | mass density [kg/m3] | speed of sound [m/s]
283.15 K | 692.422 | 1195.7
298.15 K | 679.783 | 1131
313.15 K | 666.908 | 1067.2

CCCCCCC [heptane] + CCC(C)Cl
Settings | mass density, 283.15 K [kg/m3] | mass density, 298.15 K [kg/m3] | mass density, 313.15 K [kg/m3] | speed of sound, 313.15 K [m/s]
x1 = 1 | 692.422 | 679.783 | 666.908 | –
x2 = 0 | – | – | – | 1005.3

CCCCCCC [heptane] + CCCCCl
x1 = 1
Settings | mass density [kg/m3]
283.15 K | 692.422
298.15 K | 679.783
313.15 K | 666.908

CCCCCC [hexane] + CC(C)(C)Cl
x1 = 1
Settings | mass density [kg/m3] | speed of sound [m/s]
283.15 K | 668.609 | 1145.1
298.15 K | 654.96 | 1077
313.15 K | 641.39 | 1009.9

CCCCCC [hexane] + CC(C)CCl
x1 = 1
Settings | mass density [kg/m3] | speed of sound [m/s]
283.15 K | 668.609 | 1145.1
298.15 K | 654.96 | 1077
313.15 K | 641.39 | 1009.9

CCCCCC [hexane] + CCC(C)Cl
x1 = 1
Settings | mass density [kg/m3] | speed of sound [m/s]
283.15 K | 668.609 | 1145.1
298.15 K | 654.96 | 1077
313.15 K | 641.39 | 1009.9

CCCCCC [hexane] + CCCCCl
x1 = 1
Settings | mass density [kg/m3] | speed of sound [m/s]
283.15 K | 668.609 | 1145.1
298.15 K | 654.96 | 1077
313.15 K | 641.39 | 1009.9
